The values below come from PMC9105604, “Parathyroid Hormone-Related Peptide and Its Analog, Abaloparatide, Attenuate Lethal Myocardial Ischemia-Reperfusion Injury” (Journal of Clinical Medicine, 2022).

The test system of series [1] is HL-1 cardiomyocytes. In words: MTT viability of HL-1 cardiomyocytes, simulated ischemia-reoxygenation or normoxia (Protocol 1). The class given is cell-based.
Description: Before initiating experiments, HL-1 cells were grown to ~80% confluence in 95% room air/5% CO2 at 37 °C in Claycomb medium supplemented with fetal bovine serum (10%), L-glutamine (2 mM), norepinephrine (0.1 mM), penicillin (100 U/mL) and streptomycin (100 µg/mL) [21, 22].
At 24 h after the onset of treatment, cells were subjected to 2 h of simulated ischemia (SI) + 24 h reoxygenation. During SI, Claycomb medium containing drug/placebo was replaced with drug-free hypoxia buffer at pH 6.6 (composed of NaCl (125 nM), KCl (8 mM), KH2PO4 (1.2 mM),1.25 mM MgSO4 (1.25 mM), CaCl2 (1.2 mM), NaHCO3 (6.25 mM), HEPES (20 mM), glucose (5.5 mM), 2-deoxy-D-glucose (20 mM), Na-lactate (5 mM): all ingredients from Sigma Aldrich, St. Louis, MO, USA) and the culture plates were sealed in a hermetic chamber with GasPak EZ Gas Generating Sachets (BD Biosciences, San Jose, CA, USA). Reoxygenation was achieved by removing the plates from the sealed chamber and exchanging the hypoxia buffer with serum-free Claycomb medium [21, 22]. Additional time- and treatment-matched normoxic cultures served as controls (n = 4 independent replicates per group).
(§2) The primary endpoint for Protocols 1A–C was HL-1 cell viability assessed using the MTT (3-(4,5-dimethythiazol-2-yl)-2,5-diphenyl tetrazolium bromide) assay (Sigma Aldrich, St. Louis, MO, USA). This well-established colorimetric method is based on the reduction of the soluble tetrazolium salt to purple formazan crystals by viable, metabolically active cells and quantified by measuring absorbance at 570 nm [25].
Series [2] deals with phospho-Akt. Kind of series: Immunoblot of phospho-Akt in HL-1 cells after simulated ischemia-reperfusion (Protocol 2A). The class given is cell-based. The note with it: 10 nM, 24 h pretreatment, 2 h SI + 10 min reoxygenation; n = 3; vehicle 0.14 ± 0.01. The method, then:
(§1) At 10 min post-reoxygenation, cells were harvested and lysed in RIPA buffer containing 2 protease and phosphatase inhibitors. The lysates were centrifuged at 14,000× g for 15 min, and the resultant supernatant was collected and probed for the expression of ERK (total and phosphorylated: antibodies from Cell Signaling Technology Inc., Danvers, MA, USA), PI3 kinase/Akt (total and phosphorylated: Cell Signaling Technology Inc., Danvers, MA, USA) and GAPDH (Sigma Aldrich Inc., St. Louis, MO, USA) using standard methods. Immunoreactive bands were identified by incubation with horseradish peroxidase (HRP)-conjugated secondary antibody, visualized using x-ray film, and quantified using the NIH ImageJ software.

Series [3] relates to phospho-ERK. In words: Immunoblot of phospho-ERK in HL-1 cells after simulated ischemia-reperfusion (Protocol 2A). The class given is cell-based. The settings on record: 10 nM, 24 h pretreatment, 2 h SI + 10 min reoxygenation; n = 3; vehicle 0.33 ± 0.09. On the procedure: as §1
For series [4] the following is noted: in vivo, cited from earlier work.
The subject of series [5] is HL-1 cardiomyocytes. In words: MTT viability of HL-1 cardiomyocytes with or without MEK-ERK inhibitor PD98059 (Protocol 2B).
Description: as §2
At 24 h after the onset of treatment, cells underwent either 2 h of SI + 24 h reoxygenation or a time-matched period of normoxia (n = 2 independent replicates per group). At 24 h following relief of SI, cell viability was quantified using the MTT assay as described in Protocol 1.

On to abaloparatide, for which, in series [1] (24 h pretreatment, 2 h SI + 24 h reoxygenation, Protocols 1A, 1B, confirmed in 1C), the “Concentration dependence of % viability / magnitude of protection after SI-reoxygenation” value was “modestly but significantly greater in cells incubated with 10 nM”. Also, the “HL-1 cell viability after SI-reoxygenation” value in series [1] (24 h pretreatment, then 2 h simulated ischemia + 24 h reoxygenation, PTHrP(1-36) 10, 100 nM (n = 4), abaloparatide 0.1-100 nM (n = 5), versus vehicle) is reported as “significantly better maintained”. Also, the “HL-1 cell viability under normoxic conditions” value in series [1] (time- and treatment-matched normoxic cultures) was “no effect”. In addition, in series [2], the “phospho-Akt expression (normalized to GAPDH)” value is on record as “better preservation”. The “phospho-ERK expression (normalized to total ERK)” value in series [3] is given as “modest but significant increase”. Also, the “Hemodynamic effects in post-menopausal women with osteoporosis” value in series [4] (sc) was “modest and transient increases in heart rate and decreases in supine blood pressure”. For the same molecule, the “Incidence of adverse cardiac events in treated subjects” value in series [4] is “no evidence of an increase”. In addition, in series [5] (10 nM, 24 h pretreatment, 2 h SI + 24 h reoxygenation, n = 2, versus vehicle), the “SI-reoxygenation-induced cell death (Protocol 2B)” value was “attenuated”. Also, the “Protective effect on HL-1 viability with co-administration of PD98059” value in series [5] (peptide 10 nM + PD98059 5 µM, 24 h, then 2 h SI + 24 h reoxygenation, n = 2) is “abrogated”.
For the molecule `COc1cccc(-c2cc(=O)c3ccccc3o2)c1N` [PD98059], in series [5] (peptides 10 nM, PD98059 5 µM, 24 h, normoxia, n = 2, no statistics), the “HL-1 cell viability under normoxic conditions, alone or in combination (Protocol 2B)” value is “neither PTHrP(1-36), abaloparatide, or PD98059, given alone or in combination, had an effect”.
